Results from ChEMBL document CHEMBL6153036, “Genome-informed Discovery of Monchicamides A-K: Cyanobactins from the Microcoleaceae Cyanobacterium LEGE 16532” (J Nat Prod, 2025).
The source made the active and inactive calls. Where a SMILES comes first, the peptide text is derived from it. [ ]: non-standard residue; d: D form. The star is where a group is joined. ξ: configuration not given here. ξIle = CC[C@H](C)C(N)C(=O)O; Prenyl = CC(C)=CC*

Key:
HepG2 = assay: Cytotoxicity against human HepG2 cells assessed as cell viability at 10 ug/mL incubated for 48 hrs by MTT assay; type: functional, cell-based; conditions: dose 10.0 µg/ml
HCT-116 = assay: Cytotoxicity against human HCT-116 cells assessed as cell viability at 10 ug/mL incubated for 48 hrs by MTT assay; type: functional, cell-based; conditions: dose 10.0 µg/ml
SH-SY5Y = assay: Cytotoxicity against human SH-SY5Y cells assessed as cell viability at 10 ug/mL incubated for 48 hrs by MTT assay; type: functional, cell-based; conditions: dose 10.0 µg/ml
Staphylococcus aureus = assay: Antibacterial activity against Staphylococcus aureus ATCC 29213 assessed as bacterial growth inhibition at 1 mg/mL preincubated for 30 mins at room temperature followed by incubation at 37 degreeC for 24 hrs by agar disc-diffusion method; type: functional, organism-based; conditions: time 24.5 hrs
Bacillus subtilis = assay: Antibacterial activity against Bacillus subtilis ATCC 6633 assessed as bacterial growth inhibition at 1 mg/mL preincubated for 30 mins at room temperature followed by incubation at 37 degreeC for 24 hrs by agar disc-diffusion method; type: functional, organism-based; conditions: time 24.5 hrs
Salmonella typhimurium = assay: Antibacterial activity against Salmonella typhimurium ATCC 25241 assessed as bacterial growth inhibition at 1 mg/mL preincubated for 30 mins at room temperature followed by incubation at 37 degreeC for 24 hrs by agar disc-diffusion method; type: functional, organism-based; conditions: Salmonella enterica subsp. enterica serovar Typhimurium, time 24.5 hrs
Candida albicans = assay: Antifungal activity against Candida albicans ATCC 10231 assessed as fungal growth inhibition at 1 mg/mL preincubated for 30 mins at room temperature followed by incubation at 37 degreeC for 24 hrs by agar disc-diffusion method; type: functional, organism-based; conditions: time 24.5 hrs
Escherichia coli = assay: Antibacterial activity against Escherichia coli ATCC 25922 assessed as bacterial growth inhibition at 1 mg/mL preincubated for 30 mins at room temperature followed by incubation at 37 degreeC for 24 hrs by agar disc-diffusion method; type: functional, organism-based; conditions: time 24.5 hrs
Acanthamoeba castellanii = assay: Antiamoebic activity against Acanthamoeba castellanii assessed as cell viability at 10 uM incubated for 24 hrs by Alamar blue staining based assay; type: functional, organism-based
Acanthamoeba polyphaga = assay: Antiamoebic activity against Acanthamoeba polyphaga assessed as cell viability at 10 uM incubated for 24 hrs by Alamar blue staining based assay; type: functional, organism-based
Dictyostelium discoideum = assay: Antiamoebic activity against Dictyostelium discoideum assessed as cell viability at 10 uM incubated for 24 hrs by Alamar blue staining based assay; type: functional, organism-based

Measured: Activity

CC[C@H](C)C1NC(=O)[C@@H]2CCCN2C(=O)[C@H](Cc2ccc(OCC=C(C)C)cc2)NC(=O)[C@@H]2CCCN2C(=O)[C@H](C(C)C)NC(=O)CNC(=O)[C@H](C(C)C)NC(=O)CNC1=O (stereo partly specified) (cyclo(GVGVPY(Prenyl)P[ξIle]))
inactive: HepG2 | HCT-116 | SH-SY5Y | Staphylococcus aureus | Bacillus subtilis | Salmonella typhimurium | Candida albicans | Escherichia coli | Acanthamoeba castellanii | Acanthamoeba polyphaga | Dictyostelium discoideum
